Test results reported in US20160000734A1, “METHOD AND COMPOSITIONS OF CIVAMIDE TO TREAT DISEASE OF THE INTESTINES” (WINSTON LABORATORIES, INC., priority 2010, published 2016).
Like-named read-outs stand apart in the source and are kept apart here.

Legend:
normal volunteers = assay: Abdominal distress / gastrointestinal discomfort after oral capsules in normal human volunteers; assay type: in vivo; conditions: soft gel capsules (not enteric coated)
[1] = rodents; cited from earlier work
[2] = dogs; cited from earlier work
Chung animal model = conditions: oral civamide; cited from earlier work
Formalin animal model = conditions: oral civamide; cited from earlier work
hot-plate animal model = conditions: oral civamide; cited from earlier work
[3] = cited from earlier work; for efficacy in painful, inflammatory or allergic disorders: compared with capsaicin compositions; for localized burning and stinging / local adverse effects: compared with capsaicin

COc1cc(CNC(=O)CCCC/C=C\C(C)C)ccc1O [civamide, cis-8-methyl-N-vanillyl-6-nonenamide]
abdominal distress / local burning and discomfort in the gastrointestinal tract (normal volunteers): more local burning and discomfort in the gastrointestinal tract than comparable dosages of capsaicin
absorption of an administered oral dose [1]: 8-12%
absorption of an administered oral dose [2]: 8-12%
analgesia (Chung animal model): effective analgesia
analgesia (Formalin animal model): effective analgesia
analgesia (hot-plate animal model): effective analgesia
efficacy in painful, inflammatory or allergic disorders [3]: comparable in efficacy
efficacy in painful, inflammatory or allergic disorders ([3]; listed as Civamide): effective
localized burning and stinging / local adverse effects [3]: significantly less local adverse effects
localized burning and stinging / local adverse effects ([3]; listed as Civamide): significantly less of the localized burning and stinging
